Source: publication PMC8296573, “Synthesis and Biological Evaluation of Fingolimod Derivatives as Antibacterial Agents” (ACS Omega, 2021)
≈ marks a conversion by molar mass, not a printed value. Where two headings read alike, the source gives them in different places.

Key:
Assay in all cases: Antibacterial activity, pre-exposure
[1] = tested on: A. baumannii NCTC 13423; format: cell-based, Acinetobacter baumannii; conditions: Acinetobacter baumannii, NCTC13423; for inhibition at 10 µM / inhibition at 15 µM / inhibition at 25 µM / inhibition at 50 µM: A. baumannii NCTC 13423, pre-exposure, ± SD
How it was run: (§1)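 Compounds in DMSO were plated before bacteria were added (pre-exposure) and incubated 18 h aerobically at 37 °C with shaking. Planktonic cells were read by OD and resazurin fluorescence (20 μM final; ex 560/em 590 nm). Biofilms were read by resazurin, then crystal violet (A595) for total biomass.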

[2] = tested on: S. aureus ATCC 12598; format: cell-based, Staphylococcus aureus; conditions: for Average inhibition %, biofilms viability / Average inhibition %, planktonic cells viability / inhibition at 5 µM / inhibition at 10 µM / inhibition at 15 µM / inhibition at 25 µM: S. aureus ATCC 12598, pre-exposure, ± SD
Procedure: The antimicrobial activity was assessed in a similar way for the initial screening and the dose–response evaluation against different bacterial strains. With the exception of the post-exposure experiment, the compounds were added to the wells along with the bacteria to test the ability of compounds to prevent bacterial growth and biofilm formation (pre-exposure). The compounds were diluted in DMSO and plated directly in 96-well plates before adding the bacterial culture, and plates were incubated for 18 h under aerobic conditions at 37 °C with shaking (220 rpm). The antibacterial activity of the compounds was assessed on planktonic cells and biofilms separately using two different measurements for each: optical density (turbidity) and resazurin reduction (viability) on planktonic cells and resazurin followed by a crystal violet staining assay (total biomass) on biofilms, as described in the following sections.
The resazurin staining was performed according to the protocol previously optimized with a few modifications.[46] Briefly, the planktonic solution was first transferred into a new 96-well plate and the OD of the planktonic solution was measured using a Varioskan LUX Multimode microplate reader (Thermo Scientific, Vantaa, Finland). Then, 10 μL of a 400 μM resazurin (R7017, Sigma-Aldrich, St. Louis, MO) diluted in phosphate-buffered saline (PBS) (Thermo Fisher Scientific, MA) was added to the wells (for a final resazurin concentration of 20 μM). The plate was incubated in the dark with shaking (220 rpm) for about 3–10 min at room temperature with S. aureus and A. baumannii (until the bacteria controls turned pink) or for 20 min at 37 °C with P. aeruginosa. Fluorescence was measured at λex = 560 nm and λem = 590 nm using the top optics of the Varioskan LUX Multimode microplate reader. The planktonic plate was then discarded. The original challenge plate containing the biofilms was washed once with PBS, and 200 μL of a 20 μM resazurin solution was added to the wells. The plate was incubated in the dark at 37 °C with shaking (220 rpm) for 30 min with S. aureus, 60 min with A. baumannii, and 90 min with P. aeruginosa. Fluorescence was measured as described for the planktonic solution. The biofilms were next treated with crystal violet staining.
After removing the resazurin solution from the plate, biofilms were fixed with ethanol 100% for 15 min at room temperature. Ethanol was then removed, and the biofilms were left to air-dry completely at RT. Crystal violet, diluted to 1:100 in deionized water from the 2.3% commercial solution (HT90132, Sigma-Aldrich, St. Louis, MO), was added to the wells and, after a 5 min incubation with the dye, the biofilms were washed twice with deionized water and left to air-dry for about 10 min. The dye was solubilized in ethanol 100% for 1 h, and absorbance was measured at 595 nm using a Multiskan Sky microplate spectrophotometer (Thermo Scientific, Vantaa, Finland).

[3] = tested on: P. aeruginosa ATCC 9027; format: cell-based, Pseudomonas aeruginosa; conditions: for Average inhibition %, biofilms viability / Average inhibition %, planktonic cells viability / inhibition at 50 µM / inhibition at 100 µM / inhibition at 150 µM / inhibition at 200 µM: P. aeruginosa ATCC 9027, pre-exposure, ± SD; for inhibition at 50 µM / inhibition at 100 µM / inhibition at 150 µM / inhibition at 200 µM: Pseudomonas aeruginosa, ATCC9027
How it was run: as §1

[4] = read-out: Average inhibition %, biofilms biomass
[5] = read-out: Average inhibition %, planktonic cells turbidity

MIC ([1]; pre-exposure, Inactive = no activity up to 50 μM, > = some inhibition but no MIC reached, read-out: MIC A. baumannii NCTC 13423): 15 µM (≈ 5.27 µg/mL)
MIC ([1]; supplementary molecular formula strings sheet, read-out: MIC (A. baumannii)): 15 µM (≈ 5.27 µg/mL)
MIC ([2]; Staphylococcus aureus, ATCC12598, pre-exposure, 18 h, read-out: MIC S. aureus ATCC 12598): 10 µM (≈ 3.52 µg/mL)
MIC P. aeruginosa ATCC 9027 ([3]; pre-exposure, Inactive = no activity up to 200 μM, > = some inhibition but no MIC reached): Inactive
Compound: CCCCCCCCCCc1ccc(C(O)CC(N)(CO)CO)cc1 (centres unmarked) [Compound 55, 3-Amino-3-(hydroxymethyl)-1-(4-decylphenyl)butane-1,4-diol]
inhibition at 10 µM [1, 4]: 0.2 ± 0.4%
inhibition at 10 µM [1, 5]: 0.8 ± 1.4%
inhibition at 15 µM [1, 4]: 74.2 ± 18.9%
inhibition at 15 µM [1, 5]: 97.2 ± 2.5%
inhibition at 25 µM [1, 4]: 88.5 ± 6.6%
inhibition at 25 µM [1, 5]: 99.5%
inhibition at 50 µM [1, 4]: 87.4 ± 4.1%
inhibition at 50 µM [1, 5]: 99.1%
Average inhibition %, biofilms viability ([2]; 5 µM): 15.2 ± 6.4%
Average inhibition %, planktonic cells viability ([2]; 5 µM): 7.6 ± 8.8%
Average inhibition %, biofilms viability ([2]; 10 µM): 99.2 ± 0.1%
Average inhibition %, planktonic cells viability ([2]; 10 µM): 99.8 ± 0%
Average inhibition %, biofilms viability ([2]; 15 µM): 99.5 ± 0.3%
Average inhibition %, planktonic cells viability ([2]; 15 µM): 99.7 ± 0%
Average inhibition %, biofilms viability ([2]; 25 µM): 99.6 ± 0%
Average inhibition %, planktonic cells viability ([2]; 25 µM): 99.6 ± 0.1%
inhibition at 5 µM ([2]; Staphylococcus aureus, ATCC12598, 5 µM, read-out: Average inhibition %, biofilms biomass): 27.6 ± 19.6%
inhibition at 5 µM ([2]; Staphylococcus aureus, ATCC12598, 5 µM, read-out: Average inhibition %, planktonic cells turbidity): 21.2 ± 6.5%
inhibition at 10 µM ([2]; Staphylococcus aureus, ATCC12598, 10 µM, read-out: Average inhibition %, biofilms biomass): 94.3 ± 1.2%
inhibition at 10 µM ([2]; Staphylococcus aureus, ATCC12598, 10 µM, read-out: Average inhibition %, planktonic cells turbidity): 99.6 ± 0.1%
inhibition at 15 µM ([2]; Staphylococcus aureus, ATCC12598, 15 µM, read-out: Average inhibition %, biofilms biomass): 93 ± 1.1%
inhibition at 15 µM ([2]; Staphylococcus aureus, ATCC12598, 15 µM, read-out: Average inhibition %, planktonic cells turbidity): 99.4 ± 0.2%
inhibition at 25 µM ([2]; Staphylococcus aureus, ATCC12598, 25 µM, read-out: Average inhibition %, biofilms biomass): 90.2 ± 2.1%
inhibition at 25 µM ([2]; Staphylococcus aureus, ATCC12598, 25 µM, read-out: Average inhibition %, planktonic cells turbidity): 98.9 ± 0.3%
Average inhibition %, biofilms viability ([3]; 50 µM): 13.6 ± 11.8%
Average inhibition %, planktonic cells viability ([3]; 50 µM): 31.2 ± 8.9%
Average inhibition %, biofilms viability ([3]; 100 µM): 9.4 ± 9.2%
Average inhibition %, planktonic cells viability ([3]; 100 µM): 30.3 ± 25.5%
Average inhibition %, biofilms viability ([3]; 150 µM): 3.3 ± 4.6%
Average inhibition %, planktonic cells viability ([3]; 150 µM): 40.3 ± 27.1%
Average inhibition %, biofilms viability ([3]; 200 µM): 5 ± 5.6%
Average inhibition %, planktonic cells viability ([3]; 200 µM): 27.1 ± 15.6%
inhibition at 50 µM ([3]; 50 µM, read-out: Average inhibition %, biofilms biomass): 6.4 ± 8.2%
inhibition at 50 µM ([3]; 50 µM, read-out: Average inhibition %, planktonic cells turbidity): 45.1 ± 5.7%
inhibition at 100 µM ([3]; 100 µM, read-out: Average inhibition %, biofilms biomass): 10.8 ± 8.8%
inhibition at 100 µM ([3]; 100 µM, read-out: Average inhibition %, planktonic cells turbidity): 49.4 ± 8.3%
inhibition at 150 µM ([3]; 150 µM, read-out: Average inhibition %, biofilms biomass): 12 ± 10.4%
inhibition at 150 µM ([3]; 150 µM, read-out: Average inhibition %, planktonic cells turbidity): 54.3 ± 13.8%
inhibition at 200 µM ([3]; 200 µM, read-out: Average inhibition %, biofilms biomass): 3.1 ± 2.7%
inhibition at 200 µM ([3]; 200 µM, read-out: Average inhibition %, planktonic cells turbidity): 59.4 ± 7.3%
